Reference: publication PMC6642116, “Structural and functional analyses of hepatitis B virus X protein BH3-like domain and Bcl-xL interaction” (Nature Communications, 2019)
Read-outs that look alike come from different tables or passages of the source. Residues, ends and D or L forms follow the SMILES beside them.

Experiments:
Bcl-xL = biological target: T1, Bcl-xL (Homo sapiens, UniProt Q07817, DEL27-82); test: Isothermal titration calorimetry of peptides with Bcl-xL; assay type: binding; details: ITC, 25 °C, peptide 800 μM
T1 construct: 6xHis-SUMO (N, cleaved yes); made in house; host or cells: Escherichia coli BL21(DE3)
Description: The codon-optimized DNAs encoding Bcl-xLΔTM (the flexible loop, residues 27–82, and the transmembrane domain, residues, 197–233, are deleted, total […], named as Bcl-xL thereafter) was ordered from Genewiz (www.genewiz.com). The recombinant Bcl-xL with N-terminal SUMO-fused 6× His tag was generated by the insertion of the PCR products into pETSUMO vector (Invitrogen; www.thermofisher.com) and verified by sequencing. Recombinant proteins were expressed in Escherichia coli (BL21/DE3) strain overnight at 20 °C and proteins were induced by 0.4 mM isopropyl β-D-thiogalactoside. Cells were harvested by centrifugation and the pellets were re-suspended and passed through a cell disruptor (www.avestin.com) three times. After ultracentrifugation at 40,000 rpm for 1 h, the supernatant for His-tagged recombinant proteins were purified through Ni^2+ affinity column, cleaved by Ulp-1, followed by HiLoad Superdex S-75 26/60 column (GE Healthcare). The purified proteins were dialyzed against stabilization buffer containing 20 mM Tris-HCl (pH 7.0) and 100 mM NaCl and concentrated to 10–15 mg/ml in a Centriprep-30 (Amicon) for subsequent crystallization and biochemical analysis.
Microcalorimetry was used for all measurements. Bcl-xL protein was prepared at a final concentration of 10 μM in a buffer containing 25 mM Tris-HCl (pH 8.0). The ABT-263 was dissolved in the same buffer to a final concentration of 500 μM, while the peptides were dissolved to a final concentration of 800 μM. All experiments were carried out at 25 °C. Data were analyzed using the software Origin (OriginLab).

HepG2-NTCP cells [1] = test: Cell viability (CCK8 assay) of HBV-infected HepG2-NTCP cells; assay type: cell-based; parameters: unit not given here; details: CCK8, 200 µg/mL, day 8 after HBV infection
HepG2-NTCP cells [2] = test: as above; assay type: cell-based; parameters: Cell viability: unit not given here; details: for Cell viability: day 8 after HBV infection
Protocol: Fig. 6 The HBx-aa118–127 peptide, but not ABT-263, inhibits HBV replication and transcription in HepG2.2.15 cells. a HepG2.2.15 cells were treated with 125, 250, 500, and 1000 nM of ABT-263 for 2 days. Cytoplasmic HBV viral particles were isolated and the viral DNA replication intermediates were quantified (Methods). The results represent the fold change of the replicative intermediates in HepG2.2.15 cells from the indicated treatments, compared with those without treatment. b HepG2.2.15 cells were treated with the indicated concentrations of ABT-263 for 2 days. The lysate was analyzed by immunoblotting using antibodies to caspase-3 (CASP3) and GAPDH (glyceraldehyde 3-phosphate dehydrogenase). c, d The HBx-aa113–135, HBx-aa118–127, or the control peptides were delivered into HepG2.2.15 cells using PEP-1 nanoparticles (Methods). The levels of HBV DNA (c) and the levels of HBV S-antigen (HBsAg) expression (d) in culture medium collected from HepG2.2.15 cells were measured (Methods). The results are shown as fold change compared to that of the control peptide. e–g HepG2-NTCP cells were transfected with HBx118–127 peptide with concentration of […], and 50 μg/ml or unrelated control peptide during HBV infection (multiplicity of infection (MOI) = 200), respectively. e HBV e-antigen (HBeAg), f HBV DNA, and g cell viability were measured at day 8 after HBV infection. Data shown represent mean ± SD. Significance is indicated on the top. Not significant (ns): *P < 0.05, **P < 0.01; two-tailed unpaired t tests (n = 3 biologically independent samples). Source data are provided as a Source Data file
HBx-aa118-127 peptide treatment.
obvious cytotoxicity at concentrations between 12.5-200 µg/mL (Fig. 6g). Taken together, […]

[3] = Bcl-xL 10 μM in 25 mM Tris-HCl (pH 8.0), read-out: dissociation constant

Compound | Kd (Bcl-xL; [3]) | Kd (Bcl-xL; Bcl-xL 10 μM presaturated with ABT-263, 25 mM Tris-HCl (pH 8.0), read-out: dissociation constant, Bcl-xL presaturated with ABT-263) | Cell viability (HepG2-NTCP cells [1]; replicate 1) | Cell viability (HepG2-NTCP cells [1]; replicate 2) | Cell viability (HepG2-NTCP cells [1]; replicate 3) | Cell viability (HepG2-NTCP cells [2]; CCK8, 12.5 µg/mL, replicate 1) | Cell viability (HepG2-NTCP cells [2]; CCK8, 12.5 µg/mL, replicate 2) | Cell viability (HepG2-NTCP cells [2]; CCK8, 12.5 µg/mL, replicate 3) | Cell viability (HepG2-NTCP cells [2]; CCK8, 50 µg/mL, replicate 1) | Cell viability (HepG2-NTCP cells [2]; CCK8, 50 µg/mL, replicate 2) | Cell viability (HepG2-NTCP cells [2]; CCK8, 50 µg/mL, replicate 3) | cytotoxicity (in words) (HepG2-NTCP cells [2]; HepG2-NTCP, 12.5, 50, and 200 µg/ml)
CC[C@H](C)[C@H](NC(=O)[C@H](CCC(=O)O)NC(=O)[C@H](CCC(=O)O)NC(=O)CNC(=O)[C@H](CC(C)C)NC(=O)[C@H](CCC(=O)O)NC(=O)[C@H](CCC(=O)O)NC(=O)[C@H](Cc1c[nH]c2ccccc12)NC(=O)[C@H](CC(=O)O)NC(=O)[C@H](CCCCN)NC(=O)[C@H](Cc1ccccc1)NC(=O)[C@@H](NC(=O)[C@H](CS)NC(=O)[C@H](CC(=O)O)NC(=O)[C@@H](N)CCCCN)C(C)C)C(=O)N[C@@H](CCCNC(=N)N)C(=O)N[C@@H](CC(C)C)C(=O)N[C@@H](CCCCN)C(=O)N[C@H](C(=O)N[C@@H](Cc1ccccc1)C(=O)N[C@H](C(=O)N[C@@H](CC(C)C)C(=O)NCC(=O)O)C(C)C)C(C)C [HBx-aa113–135] | 26.5 ± 13.7 µM | – | – | – | – | – | – | – | – | – | – | –
CC[C@H](C)[C@H](NC(=O)[C@H](CCC(=O)O)NC(=O)[C@H](CCC(=O)O)NC(=O)CNC(=O)[C@H](CC(C)C)NC(=O)[C@H](CCC(=O)O)NC(=O)[C@H](CCC(=O)O)NC(=O)[C@H](Cc1c[nH]c2ccccc12)NC(=O)[C@H](CC(=O)O)NC(=O)[C@@H](N)CCCCN)C(=O)O [HBx-aa118–127] (H-KDWEELGEEI-OH) | 10 ± 2.95 µM | 21 ± 4.05 µM | 96.104 | 101.260 | 101.966 | 94.534 | 96.726 | 98.429 | 92.904 | 96.191 | 97.303 | no obvious cytotoxicity
